The values below come from PMC6591177, “Small Molecule IL-36γ Antagonist as a Novel Therapeutic Approach for Plaque Psoriasis” (Scientific Reports, 2019).

Series [1] deals with IL-1β evoked IL-8 release from HaCaT cells. In words: IL-1β evoked IL-8 release assay in HaCaT cells. Type of series: cell-based, human. As to the method:
(§1) The immortalized human keratinocyte cell line HaCaT and mouse fibroblast NIH-3T3 cell line were maintained in culture in DMEM with 10% fetal bovine serum and 1% penicillin/streptomycin added (Sigma). Cells were seeded in 96-well tissue culture plates (Corning) at 25,000 cells per well and allowed to adhere and recover overnight at 37 °C in an incubator. Cells were rinsed with PBS (Sigma) and treated with cytokines diluted in 200 μL/well of the medium (DMEM with 0.5% FBS and 1% penicillin/streptomycin) as indicated. In inhibition mode, the agonist concentration used was at the EC80 for chemokine production and the cells were pre-treated with inhibitors for 30 min prior to adding the agonist. After 24 h of treatment, supernatants were collected and IL-8 and CXCL1[28] levels were assessed using a custom immunoassay (Meso Scale Discovery). EC50/IC50 values were estimated from a four-parameter logistic fit using Prism software (GraphPad).
(§2) The IL-8 release assays were miniaturized for HTS hit follow-up. Frozen aliquots of HaCaT cells were thawed, added to complete media, mixed, spun down, resuspended in fresh media, and dispensed using the Multidrop384 into black, clear-bottom 384 well plates at a final density of 4000 cells/well. […] Cell viability was assessed using Cell Titer-Glo (Promega) according to the manufacturers’ instructions.

The test system of series [2] is human IL-36γ evoked CXCL1 release from Human HaCaT cells. Briefly: human IL-36γ evoked CXCL1 release, human HaCaT cells. The note with it: ± S.D. Type of series: cell-based. The protocol: as §1
The target of the next series is T1, human IL-36α (Homo sapiens, UniProt Q9UHA7).
T1 construct: using recombinant truncated proteins
T1 sequence (Q9UHA7 6-158): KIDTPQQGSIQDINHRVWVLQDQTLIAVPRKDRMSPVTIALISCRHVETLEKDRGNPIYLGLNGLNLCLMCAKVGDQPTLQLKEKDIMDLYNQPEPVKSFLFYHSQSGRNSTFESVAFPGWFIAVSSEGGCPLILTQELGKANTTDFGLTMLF
In words: Thermal shift assay / affinity, human IL-36α. The note with it: thermal shift assay at 100 μM (Supplementary Fig. 4). Format: binding. The protocol:
(§3) Thermal shift assays[30] were performed on a Roche LightCycler 480 instrument using Sypro Orange Dye (Invitrogen). Reactions consisted of 0.5–2 µM purified recombinant protein in PBS, pH 7.4, a 1/500 dilution of the stock Sypro Orange reagent, and 100 µM test compounds, resulting in a final DMSO concentration of 1%. The samples were heated from 20 °C to 95 °C at a rate of 0.25 °C per second.

In series [3] the test system is HaCaT cells. In words: Cell viability (Cell Titer-Glo) counter screen. Format: cell-based, human. As to the method: The IL-8 release assays were miniaturized for HTS hit follow-up. Frozen aliquots of HaCaT cells were thawed, added to complete media, mixed, spun down, resuspended in fresh media, and dispensed using the Multidrop384 into black, clear-bottom 384 well plates at a final density of 4000 cells/well. After a 24 h recovery period at 37 °C/5% CO2, the cell plates were rinsed twice with 40 μL/well fresh media. The Biomek FX workstation was then used to add 10 μL/well compounds. Cell plates were then returned to 37 °C for 15 min incubation, followed by the addition of 10 μl/well of IL-36γ (40 ng/ml final). After an additional 5 h of incubation at 37 °C, 5 μl/well of cell supernatant was removed with the Biomek FX and transferred to a 384 well Proxy Plate for IL-8 detection using the HTRF kit from Cisbio. For the IL-1β evoked release of IL-8, the same protocol was followed, but with a final concentration of 1 ng/mL IL-1β and an overnight incubation instead of 5 h. Cell viability was assessed using Cell Titer-Glo (Promega) according to the manufacturers’ instructions.
(In general: In ATP-based viability assays light output follows the ATP content of the culture.)

The next series concerns the target T2, human IL-36γ (Homo sapiens, UniProt Q9NZH8).
T2 construct: His6-SUMO-human IL-36γ (18–169); His6-SUMO (N, cleaved yes); made in house; host or cells: E. coli BL21 (DE3)
T2 sequence (Q9NZH8 18-169): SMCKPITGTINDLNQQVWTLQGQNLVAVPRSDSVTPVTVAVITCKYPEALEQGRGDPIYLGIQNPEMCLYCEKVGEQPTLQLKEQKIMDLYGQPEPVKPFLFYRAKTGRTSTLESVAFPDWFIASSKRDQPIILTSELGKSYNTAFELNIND
In words: Thermal shift assay, human IL-36γ. Format: binding. The conditions noted are these: 100 μM compound; read-out: increase of melting temperature of human IL-36γ. The protocol: as §3

In series [4] the test system is IL-36γ evoked CXCL1 release from Mouse NIH-3T3 cells. In words: IL-36γ evoked CXCL1 release, mouse NIH-3T3 cells. Format: cell-based. The note with it: human IL-36γ evoked CXCL1 release, ± S.D. As to the method: as §1
A further series addresses T3, IL-36 receptor (Homo sapiens, UniProt Q9HB29).
T3 chain: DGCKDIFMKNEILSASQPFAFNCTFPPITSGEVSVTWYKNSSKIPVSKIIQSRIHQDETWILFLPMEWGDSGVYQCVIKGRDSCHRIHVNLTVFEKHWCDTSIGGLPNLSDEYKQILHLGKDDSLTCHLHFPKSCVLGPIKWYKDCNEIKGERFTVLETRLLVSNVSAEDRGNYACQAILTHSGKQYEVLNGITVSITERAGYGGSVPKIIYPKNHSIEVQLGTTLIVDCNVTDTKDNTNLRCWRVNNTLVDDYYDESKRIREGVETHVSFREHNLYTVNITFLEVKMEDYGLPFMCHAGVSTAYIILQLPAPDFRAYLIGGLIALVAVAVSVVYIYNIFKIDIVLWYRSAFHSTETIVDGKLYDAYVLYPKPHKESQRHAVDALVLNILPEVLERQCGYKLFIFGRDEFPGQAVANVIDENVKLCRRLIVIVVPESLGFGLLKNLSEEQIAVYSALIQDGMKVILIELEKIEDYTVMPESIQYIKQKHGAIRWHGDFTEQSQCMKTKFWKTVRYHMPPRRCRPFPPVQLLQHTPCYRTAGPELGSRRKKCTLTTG
In words: IL-8 release assay in HaCaT cells.

The target of series [5] is T4, human IL-36R/IL-1RAcP extracellular domain (ECD) knob-in-hole Fc (human, UniProt Q9HB29 20-335; Q9NPH3 21-367).
T4 construct: human IL-36 receptor subunit (IL-36R), extracellular domain; human IL-1RAcP co-receptor subunit, extracellular domain; Both proteins were engineered with an Fc 'knob-in-hole' to force heterodimerisation; also called hIL-36R/IL-1RAcP ECD knob-in-hole Fc; human IL-36R/IL-1RAcP ECD Fc heterodimer; not shown: His tag (from the nickel column and the Tb-anti-His detection)
T4 sequence (looked up) 1: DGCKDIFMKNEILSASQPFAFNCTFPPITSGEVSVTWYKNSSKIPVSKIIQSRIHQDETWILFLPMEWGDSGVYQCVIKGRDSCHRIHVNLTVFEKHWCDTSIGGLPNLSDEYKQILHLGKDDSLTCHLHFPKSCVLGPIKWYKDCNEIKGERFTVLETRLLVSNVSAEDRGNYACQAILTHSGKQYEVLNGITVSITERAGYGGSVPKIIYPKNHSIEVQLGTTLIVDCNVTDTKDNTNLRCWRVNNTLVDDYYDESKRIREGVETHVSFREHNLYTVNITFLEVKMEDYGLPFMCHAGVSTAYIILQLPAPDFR
T4 sequence (looked up) 2: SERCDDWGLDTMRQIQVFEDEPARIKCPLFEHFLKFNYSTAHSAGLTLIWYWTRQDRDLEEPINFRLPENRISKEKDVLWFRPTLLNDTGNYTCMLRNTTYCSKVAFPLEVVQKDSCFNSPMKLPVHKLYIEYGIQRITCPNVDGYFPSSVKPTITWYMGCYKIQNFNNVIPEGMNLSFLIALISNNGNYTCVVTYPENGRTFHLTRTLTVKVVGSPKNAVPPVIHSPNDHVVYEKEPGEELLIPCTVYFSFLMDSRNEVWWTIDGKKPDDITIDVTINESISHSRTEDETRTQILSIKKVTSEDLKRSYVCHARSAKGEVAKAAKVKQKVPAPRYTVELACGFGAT
In words: AlphaScreen or HTRF; TR-FRET, competitive mode: unlabeled human IL-36γ or IL-36Ra titrated against 6 nM Alexa 488 human IL-36γ, receptor heterodimer 1.5 μg/mL, 6 nM Tb-anti-His antibody; Ki by the Cheng-Prusoff equation. The conditions noted are these: both partners purified. A general note: In Alpha technology, singlet oxygen from a donor bead excites a nearby acceptor bead.

The subject of series [6] is HaCaT cells. Briefly: mouse IL-36γ induction of CXCL1 release from HaCaT cells. Format: cell-based, human. The conditions noted are these: agonist mode. The protocol: as §1
For series [7], the target named is T4, human IL-36R/IL-1RAcP extracellular …. Briefly: AlphaScreen or HTRF; TR-FRET, direct binding: receptor heterodimer 1.5 μg/mL with 6 nM Tb-anti-His antibody, Alexa 488 IL-36γ titrated; 1% BSA in 1X PBS; overnight at 4 °C, read at room temperature; ratio 520 nm/495 nm. The note with it: both partners purified.
In series [8] the test system is IL-36γ evoked IL-8 release from HaCaT cells. Briefly: IL-36γ evoked IL-8 release assay from HaCaT cells. Format: cell-based, human. The note with it: agonist mode, n = 4. The protocol: as §1, §2

On to `COC(c1ccccc1)(c1ccccc1)C(Oc1nc(C)cc(-c2ccc(C)c(N)c2)n1)C(=O)O` (centres unmarked) [Compound A-706], for which the “activity in the hIL-1β induced IL-8 release assay” value in [1] is reported as “no activity”. Also, the Ki (commonly a measure of affinity in units of concentration, obtained from inhibition or displacement) in series [2] came out at 121 ± 32 nM; in series [4] it was 181 ± 54 nM. Moreover, the “binding / affinity to human IL-36α” value at human IL-36α is “do not bind”. In addition, the cellular toxicity entry in the series with HaCaT cells [3] was “no activity in the hIL-1β induced IL-8 release assay or cellular toxicity”. In addition, at human IL-36γ, the ΔTm at 100 µM was found to be 5.4 °C.

B1: human IL-36Ra (2–155) (ligand, UniProt Q9UBH0 2-155, looked up)
chain: VLSGALCFRMKDSALKVLYLHNNQLLAGGLHAGKVIKGEEISVVPNRWLDASLSPVILGVQGGSQCLSCGVGQEPTLTLEPVNIMELYLGAKESKSFTFYRRDMGLTSSFESAAYPGWFLCTVPEADQPVRLTQLPENGGWNAPITDFYFQQCD
notes: human IL-36 receptor antagonist (IL-36Ra), residues 2-155; also called hIL-36Ra; recombinant soluble hIL-36Ra; source: E. coli BL21 (DE3), purified (nickel column, ULP1 cleavage, Superdex 75 gel filtration); not shown: His6, N-terminal, cleaved; SUMO, N-terminal, cleaved
Consider B1, for which the figures for the Ki (with IL-36 receptor; in [5]) were 0.6 nM and 2 nM, respectively.

B2: mouse IL-36γ: mouse IL-36γ cytokine (protein, UniProt Q8R460 13-164, looked up)
Interleukin-36 gamma: GRETPDFGEVFDLDQQVWIFRNQALVTVPRSHRVTPVSVTILPCKYPESLEQDKGIAIYLGIQNPDKCLFCKEVNGHPTLLLKEEKILDLYHHPEPMKPFLFYHTRTGGTSTFESVAFPGHYIASSKTGNPIFLTSKKGEYYNINFNLDIKS
For the molecule B2, the “induction of CXCL1 release from HaCaT cells” value with HaCaT cells [6] was “cannot induce CXCL1 release”.

B3: N-terminal labeled Alexa 488 human IL-36γ (ligand, UniProt Q9NZH8 18-169, looked up)
chain: T2 sequence (Q9NZH8 18-169)
modifications: Alexa Fluor 488 (N-hydroxysuccinimidyl ester); called N-terminal labeled
notes: human IL-36γ, residues 18-169; Same protein as m3, with the dye; also called Alexa-488 labeled hIL-36γ; NHS-AlexaFluor-488 conjugated human IL-36γ; not shown: His6, N-terminal, cleaved; SUMO, N-terminal, cleaved
On to B3, for which the EC50 (as a rule, the concentration giving half of the maximal effect) in series [7] is 0.3 nM.

B4: human IL-36γ: recombinant human IL-36γ (18–169) cytokine, IL-36R agonist (protein)
chain: T2 sequence (Q9NZH8 18-169)
modifications: left off: His6, N-terminal, cleaved | SUMO, N-terminal, cleaved
notes: recombinant human IL-36γ (18–169) cytokine, IL-36R agonist
For B4, the response in [8] was half-maximal at 0.2 ± 0.1 nM (EC50).
